ChEMBL document CHEMBL2346553, “Synthesis and evaluation of non-dimeric HCV NS5A inhibitors” (Bioorg Med Chem Lett, 2013)

Tests used:
[1] = in vitro; conditions: human, HuH7 cells
[2] = in vitro; conditions: chlorocebus sabaeus, Vero cells
[3] = test system: Hepatitis C virus; assay: microbe, parasite or virus in culture; conditions: genotype 1b, Huh-7
[4] = in vitro; conditions: human, pbmc
[5] = in vitro; conditions: human, CEM cells

Which CC50 [1] does the source give for COC(=O)N[C@H](C(=O)N1CCC[C@H]1c1ncc(-c2ccc(-c3ccccc3C(F)(F)F)cc2)[nH]1)C(C)C here?
Its CC50 is over 1 µM.

And the CC50 [2]?
Its CC50 is 13 µM.

What about the EC50 [3] of the same compound?
The EC50 was over 0.1 µM.

And the CC50 [4]?
Its CC50 is 24 µM.

And the CC50 [5]?
The CC50 was 75 µM.

For COC(=O)N[C@H](C(=O)N1CCC[C@H]1c1ncc(-c2ccc(-c3cccc(C(F)(F)F)c3)cc2)[nH]1)C(C)C, which CC50 [1] is on record?
The CC50 was over 1 µM.

And the CC50 [2]?
The CC50 was 12 µM.

And the EC50 [3]?
The EC50 was over 0.1 µM.

And the CC50 [4]?
The CC50 was 44 µM.

What about the CC50 [5] of the same compound?
Its CC50 is 32 µM.

What does the source list for COC(=O)N[C@H](C(=O)N1CCC[C@H]1c1ncc(-c2ccc(-c3ccc(OC(F)(F)F)cc3)cc2)[nH]1)C(C)C?
CC50 [1]: > 1 µM; CC50 [2]: 10 µM; EC50 [3]: > 0.1 µM; CC50 [4]: 11 µM; CC50 [5]: 10 µM

For COC(=O)N[C@H](C(=O)N1CCC[C@H]1c1ncc(-c2ccc(-c3ccc(O)cc3)cc2)[nH]1)C(C)C, which CC50 [1] is on record?
Its CC50 is over 1 µM.

And the CC50 [2]?
Its CC50 is 13 µM.

What about the EC50 [3] of the same compound?
Its EC50 is 0.005 µM.

What about the EC90 [3] of the same compound?
The EC90 was 0.017 µM.

And the CC50 [4]?
Its CC50 is 70 µM.

What about the CC50 [5] of the same compound?
Its CC50 is 55 µM.
